22 molecules from US10604489B2, “Compounds for the treatment of pain” (priority 2018, dated 2020) can be followed below.

Molecules are shown by their SMILES. Where a name gives a salt, the structure may show the parent alone.

The target in one data set is μ-receptor (Homo sapiens (Human), UniProt P35372). Kind of data set: Alternate receptor binding assay, competitive displacement of [3H]DAMGO. The following applies: alternate assay: 0.8 nM [3H]DAMGO, 5 mM MgCl2, CHO cell membrane protein, 120 min. For orientation: Loss of bound radioactivity is the signal in a displacement assay; it reports binding, not function.
Another data set concerns the target human μ opioid receptor (Homo sapiens (Human), UniProt P35372). Description: Alternate functional activity ([35S]GTPγS binding) assay, SPA beads. It counts as biochemical. The following applies: alternate assay: [35S]GTPγS 0.020 nM, CHO cell membranes with WGA PVT SPA beads. On the procedure: The [^35S]GTPγS assay measures the functional properties of a compound by quantifying the level of G-protein activation following agonist binding in studies using stably transfected cells, and is considered to be a measure of the efficacy of a compound. Membranes from CHO (Chinese Hamster Ovary) cells that stably expressed one type of the cloned human opioid receptor human were used in the experiments. The assay buffer consisted of 50 mM Tris-HCl, pH 7.4, 3 mM MgCl2, 0.2 mM EGTA, 5 μM GDP, and 100 mM NaCl. CHO cell membranes stably expressing the human p opioid receptor were pre-incubated with scintillation proximity assay beads from PerkinElmer® (WGA PVT SPA) for 30 minutes, at 8 µg membrane and […] beads in a volume of 0.1 mL per reaction. In a final volume of 0.2 mL, 11 different concentrations of each test compound were incubated with the membrane-SPA bead mixture and a final concentration of 0.020 nM [35S]GTPγS for 1.5 hours with gentle shaking. Reactions were then incubated for 5 hours. Data are the mean EC50 values ±S.E.M. EC50 values (nM) for compounds 12, 16, 19, 20, 149, 151, 152, 157, 160, 161, 164-169, 172, 173, 180-197, and 199-207 are shown in Table 1.
In general terms: GTPγS is a poorly hydrolysed GTP analogue; its binding reports G protein activation.

Data set [1] has as its system Male Sprague-Dawley rats. The following applies: maximum pCO2 within 2 hours of administration, subcutaneous, rat.
Data set [2] relates to Male Sprague-Dawley rats. Description: animal or person. It counts as in vivo, rat. The following applies: sc; minimum dose at which maximal reversal of hind paw weight bearing (50±0.5%) was achieved; subcutaneous administration; rat; read-out: MEMD SC CFA.

The term Ki denotes a dissociation constant, usually derived from enzyme kinetics or from competition with a known ligand. The term EC50 denotes the concentration giving half of the maximal effect. Consider `COC1(c2ccnc(C(N)=O)c2)C2CCCC1CN(C1CCC(F)(F)CC1)C2` (stereo not shown) [Compound 195], for which the Ki on μ-receptor was in the range of 1 to 5 nM. Besides, the EC50 on human μ opioid receptor was > 75 nM.

Take `NC(=O)c1cccc(C2(OCC(F)F)C3CCCC2CNC3)c1` (stereo not shown) [Compound 182]: the Ki on μ-receptor was > 5 nM. For the same molecule, the EC50 at human μ opioid receptor was in the range of 10 to 75 nM.

For the molecule `COC1(c2ccnc(C(N)=O)c2)C2CCCC1CN(C1CC3CCC(C1)O3)C2` (stereo not shown) [Compound 202], on μ-receptor, the inhibitory constant (Ki) is > 5 nM. Moreover, at human μ opioid receptor, the EC50 is > 75 nM.

With `COC1(c2cccc(C(N)=O)c2)C2CCCC1CN(Cc1cnc(C)[nH]1)C2` [Compound 149, 3-((1R,5S,9r)-9-methoxy-34(2-methyl-1H-imidazol-4-yl)methyl)-3-azabicyclo[3.3.1]nonan-9-yl)benzamide hydrochloride], the inhibition constant Ki at μ-receptor was < 1 nM. Also, the concentration for a half-maximal effect (EC50) on human μ opioid receptor was < 10 nM.

Turning to `COC1(c2ccnc(C(N)=O)c2)C2CCCC1CN(C1CC3CCC(C1)O3)C2` [Compound 12, 4-((1R,5S,9R)-3-((1R,3s,5S)-8-oxabicyclo[3.2.1]octan-3-yl)-9-methoxy-3-azabicyclo[3.3.1]nonan-9-yl)picolinamide hydrochloride], the Ki on μ-receptor (hydrochloride) was < 1 nM. The molecule further came in with an EC50 at human μ opioid receptor of 10 to 75 nM.

Take `COC1(c2cccc(C(N)=O)c2)C2CCCC1CN([C@H]1C[C@@H]3[C@H](C1)C3(F)F)C2` (stereo partly shown) [Compound 200]: the Ki on μ-receptor was < 1 nM. The 50% effective concentration (EC50) at human μ opioid receptor was < 10 nM.

Consider `COC1(c2ccnc(C(N)=O)c2)C2CCCC1CN(CC1(F)CCOCC1)C2` (stereo not shown) [Compound 198], for which the Ki at μ-receptor is > 5 nM.

Take `COC1(c2cccc(C(N)=O)c2)C2CCCC1CN([C@@H](C)c1cnc[nH]1)C2` (stereo partly drawn) [Compound 19, 3-((1R,5S,9S)-3-((S)-1-(1H-imidazol-5-yl)ethyl)-9-methoxy-3-azabicyclo[3.3.1]nonan-9-yl)benzamide hydrochloride]: on μ-receptor, the inhibition constant Ki was < 1 nM. In addition, the EC50 at human μ opioid receptor was < 10 nM.

`COC1(c2cccc(C(N)=O)c2)C2CCCC1CN([C@H](C)c1cnc[nH]1)C2` (stereo partly drawn) [Compound 20, 3-((1R,5S,9R)-3-((R)-1-(1H-imidazol-5-yl)ethyl)-9-methoxy-3-azabicyclo[3.3.1]nonan-9-yl)benzamide hydrochloride] returned a Ki at μ-receptor of 1 to 5 nM. Moreover, on human μ opioid receptor, the EC50 lay in the range of 10 to 75 nM.

In the case of `COC1(c2cccc(C(N)=O)c2)C2CCCC1CN(C1C[C@@H]3C[C@@H]3C1)C2` (stereo partly shown) [Compound 199], the inhibition constant Ki at μ-receptor was < 1 nM. For the same molecule, the EC50 on human μ opioid receptor was < 10 nM.

For `NC(=O)c1cccc(C2(OCCF)C3CCCC2CNC3)c1` (stereo not shown) [Compound 187], the Ki at μ-receptor was > 5 nM. Also, the EC50 on human μ opioid receptor was in the range of 10 to 75 nM.

Turning to `COC1(c2cccc(C(N)=O)c2)C2CCCC1CN(C[C@H]1C[C@@H]3C[C@@H]3C1)C2` (stereo partly drawn) [Compound 152, 3-((1R,5s,9R)-3-((1R,3s,5S)-bicyclo[3.1.0]hexan-3-ylmethyl)-9-methoxy-3-azabicyclo[3.3.1]nonan-9-yl)benzamide hydrochloride], the inhibition constant (Ki) on μ-receptor was < 1 nM. Also, the EC50 at human μ opioid receptor was < 10 nM.

Turning to `COC1(c2cccc(C(N)=O)c2)C2CCCC1CN(C1CN(c3ccccc3)C1)C2` [Compound 151, 3-((1R,5S,9r)-9-methoxy-3-(1-phenylazetidin-3-yl)-3-azabicyclo[3.3.1]nonan-9-yl)benzamide (S)-2-hydroxysuccinate], at μ-receptor, the Ki is < 1 nM. The EC50 on human μ opioid receptor was < 10 nM.

On to `CCOC1(c2cc(C(N)=O)ccc2Cl)C2CCCC1CNC2` (stereo not shown) [Compound 188], for which the Ki at μ-receptor is > 5 nM. Besides, the concentration for a half-maximal effect (EC50) on human μ opioid receptor was > 75 nM.

Consider `CCOC1(c2cccc(C(N)=O)c2)C2CCCC1CNC2.Cl` [Compound 160, 3-((1R,5S,9r)-9-ethoxy-3-azabicyclo[3.3.1]nonan-9-yl)benzamide], for which the inhibition constant Ki on μ-receptor fell in the range of 1 to 5 nM. In addition, in the data set with Male Sprague-Dawley rats [1] (dose 10× CFA MEMD), the “<60 mmHg @ 10X CFA MEMD” value is listed as “+ (resulted in a maximum pCO2 value of less than 60 mmHg within 2 hours of administration)”. The “<60 mmHg @ 100X CFA MEMD” value in the data set on Male Sprague-Dawley rats [1] (dose 100× CFA MEMD) is “+ (resulted in a maximum pCO2 value of less than 60 mmHg within 2 hours of administration)”. Further, in the data set with Male Sprague-Dawley rats [2], the minimal effective dose worked out at 0.1 mg/kg. This molecule showed an EC50 on human μ opioid receptor of 10 to 75 nM.

For the molecule `COC1(c2ccnc(C(N)=O)c2)C2CCCC1CN([C@H]1C[C@@H]3[C@H](C1)C3(F)F)C2` (stereo partly shown) [Compound 197], on μ-receptor, the Ki was < 1 nM. Moreover, the concentration giving a half-maximal response (EC50) on human μ opioid receptor is < 10 nM.

`COC1(c2cccc(C(N)=O)c2)C2CCCC1CN(CCCF)C2` [Compound 157, 3-((1R,5S,9r)-3-(3-fluoropropyl)-9-methoxy-3-azabicyclo[3.3.1]nonan-9-yl)benzamide hydrochloride]: the Ki on μ-receptor is < 1 nM. At human μ opioid receptor, this molecule registered an EC50 of 10 to 75 nM.

As for `CCOC1(c2ccc(F)c(C(N)=O)c2)C2CCCC1CNC2` (stereo not shown) [Compound 183], the inhibitory constant (Ki) at μ-receptor was > 5 nM. The EC50 at human μ opioid receptor is > 75 nM.

The molecule `COC1(c2cccc(C(N)=O)c2)C2CCCC1CN(C1CC3CCC(C1)O3)C2` (stereo not shown) [Compound 203] gave a Ki on μ-receptor of 1 to 5 nM. Further, the EC50 on human μ opioid receptor is > 75 nM.

For `CCOC1(c2cccc(C(N)=O)c2F)C2CCCC1CNC2` (stereo not shown) [Compound 180], on μ-receptor, the Ki was > 5 nM. Besides, at human μ opioid receptor, the EC50 was > 75 nM.

In the case of `COC1(c2cccc(C(N)=O)c2)C2CCCC1CN(C1CC3CCC(C1)O3)C2` (single isomer, unassigned) [Compound 16, hydrochloride], the inhibition constant Ki on μ-receptor is < 1 nM. Further, on human μ opioid receptor, the EC50 is < 10 nM.

As for `COC1(c2cccc(C(N)=O)c2)C2CCCC1CN(C1CCC(F)(F)CC1)C2` (stereo not shown) [Compound 196], the Ki at μ-receptor was < 1 nM. This molecule had an EC50 at human μ opioid receptor of 10 to 75 nM.
